We go through 17 molecules from PubChem BioAssay (NCI).

Broadly, the TGI is the concentration giving total growth inhibition. The term GI50 denotes the concentration giving 50% growth inhibition.

Several values for one entry are separate records, joined by “and”; a condition that tells them apart may be missing. Identical values can stand only once.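 96-well plates; 48 h exposure; 5 concentrations. Endpoints by linear interpolation between flanking doses. Not reached: highest tested concentration assigned. GI50 marks 50% less growth. TGI marks complete inhibition of growth.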

Among the test systems are DU-145 prostate; SW-620 colon; A549 NSCLC; NCI-H23 lung; SK-MEL-2 melanoma; SN12C renal; SF-539 CNS; NCI-H522 lung; RPMI-8226 leukemia; OVCAR-4 ovarian.
Assay in all cases: DTP human tumour cell line panel, 48 h

Turning to `Cc1ccc(C(=O)C2CC3(CCC2(O)c2ccc(C)cc2)CC(=O)Nc2ccccc2C3=O)cc1` (stereo not given), the TGI in the assay with DU-145 prostate, in the assay with SW-620 colon, in the assay on A549 NSCLC, in the assay on NCI-H23 lung, in the assay with SK-MEL-2 melanoma and in the assay with SN12C renal was more than 100 µM throughout. Besides, the TGI in the assay with SF-539 CNS was more than 100 µM.
For `O=C(Nc1nc2ccc([N+](=O)[O-])cc2s1)c1cc([N+](=O)[O-])ccc1Cl`, the total growth inhibition concentration (TGI) in the assay on DU-145 prostate turned out to be 31 µM; with SW-620 colon, 5.59 µM; in the assay on NCI-H522 lung, 4.39 µM; in the assay with NCI-H23 lung, 6.92 µM; with SN12C renal, 4.57 µM; in the assay with RPMI-8226 leukemia, 9.8 µM. Further, the TGI in the assay with OVCAR-4 ovarian was more than 100 µM; in the assay on SF-539 CNS it was 6.71 µM.
Turning to `CC(=O)OCc1cc2c(s1)C(=O)c1sccc1C2=O`, the total growth inhibition concentration (TGI) in the assay on DU-145 prostate is 0.104 µM; in the assay on SW-620 colon, 0.268 µM; in the assay with NCI-H522 lung it was 0.295 µM; in the assay with A549 NSCLC it was 0.368 µM; in the assay with NCI-H23 lung, 0.0378 µM; with SK-MEL-2 melanoma it was 0.249 µM. The results for the TGI in the assay on SN12C renal, with OVCAR-4 ovarian and with SF-539 CNS were 0.261 µM, 0.334 µM and 0.285 µM, respectively.
On to `NS(=O)(=O)c1cc2c(cc1Cl)NC(C(=O)NNC(=O)c1ccncc1)=NS2(=O)=O`, for which the concentration for total growth inhibition (TGI) in the assay on SW-620 colon, in the assay on NCI-H522 lung, with A549 NSCLC, with NCI-H23 lung, in the assay on SK-MEL-2 melanoma and in the assay with SN12C renal was more than 100 µM each time. Further, the concentration for total growth inhibition (TGI) in the assay with OVCAR-4 ovarian and in the assay with SF-539 CNS was more than 100 µM each time.
Consider `CCc1nc2cc(F)ccc2[nH]c1=O`, for which the TGI in the assay with DU-145 prostate, with SW-620 colon, in the assay on A549 NSCLC, in the assay on NCI-H23 lung, in the assay with SK-MEL-2 melanoma and in the assay on SN12C renal was more than 100 µM in each case. Further, the total growth inhibition concentration (TGI) with RPMI-8226 leukemia, in the assay with OVCAR-4 ovarian and in the assay with SF-539 CNS was more than 100 µM throughout.
On to `CSC(=NCCCN=C(NS(=O)(=O)c1ccc(Cl)cc1)SC)NS(=O)(=O)c1ccc(Cl)cc1`, for which the concentration for total growth inhibition (TGI) in the assay on DU-145 prostate was more than 100 µM; in the assay with SW-620 colon, more than 100 µM; in the assay with SK-MEL-2 melanoma, 43.6 µM; with SN12C renal, more than 100 µM; in the assay with RPMI-8226 leukemia, more than 100 µM; in the assay with OVCAR-4 ovarian it was more than 100 µM. Also, the TGI with SF-539 CNS is more than 100 µM.
Take `COc1ccc(Sc2ccccc2[N+](=O)[O-])cc1`: the concentration for total growth inhibition (TGI) in the assay with SW-620 colon, in the assay on A549 NSCLC, in the assay with NCI-H23 lung, with SK-MEL-2 melanoma, in the assay with SN12C renal and with RPMI-8226 leukemia was more than 100 µM throughout. In addition, the concentration for total growth inhibition (TGI) with OVCAR-4 ovarian and with SF-539 CNS was more than 100 µM in each case.
In the case of `COC1=C(C)C(=O)C2=C(C1=O)C1C3CC4=C(C(=O)C(OC)=C(C)C4=O)C(CNC(=O)C(C)=O)N3C(C#N)C(C2)N1C` (stereo not given), the concentration for 50% growth inhibition (GI50) in the assay on DU-145 prostate was 0.0033 µM. Besides, the concentration for total growth inhibition (TGI) with DU-145 prostate was 0.0862 µM; in the assay on SW-620 colon, 0.297 µM and 0.125 µM; with SN12C renal, 0.348 µM and 0.144 µM.
As for `CN(C)c1ccc(/C=C2\CCCCCC2=O)cc1`, the concentration for total growth inhibition (TGI) with DU-145 prostate, in the assay on SW-620 colon, in the assay with A549 NSCLC, with SK-MEL-2 melanoma, in the assay with SN12C renal and in the assay with RPMI-8226 leukemia was more than 100 µM throughout. For the same molecule, in the assay with SF-539 CNS, the TGI was more than 100 µM.
Take `O=C1CSC(c2cccc(Oc3ccccc3)c2)N1c1cc(Cl)ccc1Cl` (stereo not given): the concentration for total growth inhibition (TGI) is more than 100 µM in the assay with DU-145 prostate; 70.5 µM with SW-620 colon; 41.1 µM with NCI-H522 lung; more than 100 µM in the assay with A549 NSCLC; 98.2 µM with NCI-H23 lung; 36.3 µM in the assay on SK-MEL-2 melanoma. Besides, the results for the TGI with SN12C renal, in the assay with OVCAR-4 ovarian and in the assay on SF-539 CNS were 39.1 µM, 60.8 µM and 35.6 µM, respectively.
As to `O=CC12CCCN1CCC2`, the concentration for total growth inhibition (TGI) in the assay on DU-145 prostate, in the assay with SW-620 colon, in the assay with NCI-H522 lung, with A549 NSCLC, in the assay with NCI-H23 lung and in the assay with SK-MEL-2 melanoma was more than 100 µM throughout. The TGI in the assay on SN12C renal and with OVCAR-4 ovarian was more than 100 µM in each case.
For the molecule `O=C(NCc1ccc(Cl)c(Cl)c1)c1nc2ccccc2nc1NCc1ccc(Cl)c(Cl)c1`, the TGI with DU-145 prostate, with SW-620 colon, with NCI-H522 lung, in the assay with A549 NSCLC, in the assay on NCI-H23 lung and in the assay with SK-MEL-2 melanoma was more than 100 µM throughout. Moreover, the TGI in the assay on SN12C renal and in the assay on SF-539 CNS was more than 100 µM throughout.
Regarding `CCCCCCCCCCCC1=C(O)C(=O)C=C(O)C1=O`, the TGI in the assay on SW-620 colon was 55.3 µM; in the assay on NCI-H522 lung, 66.5 µM; in the assay on A549 NSCLC it was 13.4 µM; in the assay with NCI-H23 lung, 29.7 µM; in the assay on SK-MEL-2 melanoma, 12.5 µM; in the assay on SN12C renal, 12.9 µM. Moreover, the total growth inhibition concentration (TGI) in the assay on RPMI-8226 leukemia was 19.3 µM; in the assay with OVCAR-4 ovarian it was 33.2 µM; with SF-539 CNS, 23.3 µM.
Regarding `CC(=O)Oc1cc(OC(C)=O)c2c(c1C)CC[C@@H]1[C@@H]2CC[C@]2(C)[C@@H](OC(C)=O)CC[C@@H]12`, the TGI worked out at 61 µM in the assay with DU-145 prostate; 32.9 µM with SW-620 colon; 32 µM with NCI-H522 lung; 34.7 µM in the assay on A549 NSCLC; 38.8 µM in the assay with NCI-H23 lung; 33.7 µM with SN12C renal. Further, the values for the TGI in the assay on RPMI-8226 leukemia and with SF-539 CNS were 31.3 µM and 30.4 µM, respectively.
For the molecule `O=C(C[N+]1(c2ccccc2)CCOCC1)c1ccccc1`, the concentration for total growth inhibition (TGI) in the assay with DU-145 prostate, in the assay with NCI-H522 lung, with A549 NSCLC, in the assay on NCI-H23 lung, in the assay on SK-MEL-2 melanoma and in the assay on SN12C renal was more than 100 µM throughout. This molecule also registered a concentration for total growth inhibition (TGI) with OVCAR-4 ovarian of more than 100 µM.
Turning to `COc1cc(O)c2c(=O)c(O)c(-c3ccc(O)c(O)c3)oc2c1`, the concentration for total growth inhibition (TGI) in the assay on DU-145 prostate is 25.5 µM; with SW-620 colon, 53.7 µM; in the assay on NCI-H522 lung, 25.5 µM; with A549 NSCLC, 50.3 µM; in the assay with RPMI-8226 leukemia, more than 100 µM; in the assay on OVCAR-4 ovarian it was 37.6 µM.
`Cc1cc(NS(=O)(=O)c2ccc(NC(NC(=O)OC(C)C)(C(F)(F)F)C(F)(F)F)cc2)nc(C)n1`: the total growth inhibition concentration (TGI) in the assay on DU-145 prostate, in the assay with SW-620 colon, in the assay with A549 NSCLC, in the assay on NCI-H23 lung, in the assay on SN12C renal and in the assay with RPMI-8226 leukemia was more than 100 µM throughout. Moreover, the total growth inhibition concentration (TGI) in the assay on OVCAR-4 ovarian and with SF-539 CNS was more than 100 µM in each case.
